The term EC50 denotes the concentration giving half of the maximal effect.

Experiment [1] in a line: cell-permeable autofluorescent compounds in GFP channel, dose response, artefact control, imaging, high-content imaging (AID 2124).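 On cell count: cells exposed to compound for 48 hours before fixing.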 To be noted: cells, GFP-channel autofluorescence, high-content imaging; cell count; at 10 µM.
Experiment [2] has as its system cells, GFP-channel autofluorescence, high-content imaging. The description is as above.

Results filed as inconclusive are left out. The source made the active and inactive calls. How the calls were made is not given here; tested in MIN6 cells. Some results are limits rather than exact numbers.

On to `O=C1c2cccc3c(O)ccc(c23)C(=O)N1Cc1ccco1`, for which, in experiment [1], the cell count stood at 2850 cells. Moreover, in experiment [2], the EC50 was 14.6 µM (inactive).

In experiment [1], `CC(=O)c1c(N2CCOCC2)[nH]c(-c2ccccc2)nc1=S` showed a cell count of 3510 cells. Further, the EC50 in experiment [2] is 1.05 µM.

As for `CCCN1C(=O)/C(=C\C=C2\N(CC)c3ccccc3C2(C)C)SC1=S`, the cell count in experiment [1] was found to be 2900 cells. In experiment [2], the EC50 is 7.93 µM.

On to `Cn1cc(/C=C2\SC(=S)N(NC(=O)c3ccccc3Cl)C2=O)c2ccccc21`, for which the cell count in experiment [1] came to 3740 cells. In addition, the EC50 in experiment [2] was 13.9 µM (inactive).

In experiment [1], `C=CCN1C(=O)/C(=C\C=C2\N(C)c3ccccc3C2(C)C)SC1=S` displayed a cell count of 2620 cells. Moreover, the EC50 in experiment [2] is 6.86 µM.

Molecule `Cc1nn(C)cc1N1C(=O)c2cccc3c(N)ccc(c23)C1=O` had a cell count in experiment [1] of 2940 cells. The EC50 in experiment [2] is > 16 µM (inactive).

Molecule `CCN(CC)c1ccc(/C=C(/C#N)C(=O)NC(C)C)o1` registered a cell count in experiment [1] of 3080 cells. Moreover, the EC50 in experiment [2] was 14.2 µM (inactive).

Take `CC(C)N1CC=C2C(C#N)=C(N)C(C#N)(C#N)C(c3ccccc3)C2C1` (stereo not drawn): the cell count in experiment [1] was 3040 cells. Also, the EC50 in experiment [2] is 8.22 µM.

`Cc1nonc1NC(=O)CSc1nc2c(C)cccc2cc1C#N` displayed a cell count in experiment [1] of 3270 cells. Also, in experiment [2], the EC50 was 9.41 µM.

On to `CN1CC=C2C(C#N)=C(N)C(C#N)(C#N)[C@H](c3cccs3)[C@H]2C1`, for which, in experiment [1], the cell count was 2820 cells. The EC50 in experiment [2] was > 16 µM (inactive).

With `O=C1c2cccc3c(N4CCCCC4)ccc(c23)C(=O)N1c1ccccc1O`, the cell count in experiment [1] amounted to 3140 cells. The EC50 in experiment [2] was 15.3 µM (inactive).

In turn, `CCCN1C(=O)/C(=C/C=C2\N(CC)c3ccccc3C2(C)C)SC1=S` showed a cell count in experiment [1] of 3030 cells. For the same molecule, in experiment [2], the concentration for a half-maximal effect (EC50) was 2.71 µM.

For `Cc1csc(NC(=O)c2sc3nc(-c4cccs4)ccc3c2N)n1`, the cell count in experiment [1] came to 2840 cells. For the same molecule, the EC50 in experiment [2] is 15.7 µM (inactive).

Consider `O=C(OCCN1C(=O)c2cccc3c(N4CCOCC4)ccc(c23)C1=O)c1ccc(Cl)cc1Cl`, for which, in experiment [1], the cell count was 1690 cells. Besides, the EC50 in experiment [2] is 6.84 µM.

As for `O=C(C1=C(O)C(=O)N(c2nccs2)C1c1ccccc1)c1cc2ccccc2o1` (stereo not drawn), the cell count in experiment [1] came to 2920 cells. Further, the EC50 in experiment [2] is 8.55 µM.

As for `CN(C)c1ccc(/C=C/C(O)=C2/C(=O)N(C)C3(C)CC2c2ccccc2O3)cc1` (stereo not drawn), the cell count in experiment [1] amounted to 2640 cells. Moreover, the concentration for a half-maximal effect (EC50) in experiment [2] is 7.25 µM.

As for `CC(C)N1CC=C2C(C#N)=C(N)C(C#N)(C#N)[C@H](c3ccoc3)[C@H]2C1`, the cell count in experiment [1] was found to be 2840 cells. For the same molecule, the EC50 in experiment [2] was 6.74 µM.

The molecule `Cc1ccc(S(=O)(=O)CCSc2nc(C)cc(C(F)(F)F)c2C#N)cc1` showed a cell count in experiment [1] of 2460 cells. For the same molecule, the EC50 in experiment [2] was 7.21 µM.

`Cc1c2ccccc2nc2c(F)c(NC(C)C)c(F)c(F)c12`: the cell count in experiment [1] turned out to be 2550 cells. Further, the EC50 in experiment [2] was 9.12 µM.

`COc1cccc2sc(NNC(=O)C3=COCCO3)nc12` returned a cell count in experiment [1] of 3320 cells. The EC50 in experiment [2] was 8.52 µM.

`Cc1ccnc(N/C=C(\C#N)c2nc(-c3cccc(Br)c3)cs2)c1` returned a cell count in experiment [1] of 2880 cells. The EC50 in experiment [2] is 8.87 µM.

`CCN(CC)c1ccc(/C=C/C(=O)c2ccc(Br)cc2)cc1` had a cell count in experiment [1] of 2880 cells. In addition, the EC50 in experiment [2] is 3.67 µM.

In turn, `CCOC(=O)c1sc2cc([N+](=O)[O-])cc(SCC(C)C)c2c1N` registered a cell count in experiment [1] of 3070 cells. Moreover, in experiment [2], the EC50 was 1.24 µM.

Consider `CN(C)c1ccc(/C=C/C(=O)c2c(O)c3ccccc3oc2=O)cc1`, for which the cell count in experiment [1] came to 3230 cells. Besides, the EC50 in experiment [2] was > 16 µM (inactive).

For `CN1CC=C2C(C#N)=C(N)C(C#N)(C#N)[C@H](c3ccoc3)[C@H]2C1`, the cell count in experiment [1] worked out at 1690 cells. Also, the EC50 in experiment [2] was > 16 µM (inactive).

With `Oc1ccc(/C=N/Nc2ccnc3cc(Cl)ccc23)c(O)c1`, the cell count in experiment [1] stood at 1690 cells. Further, the EC50 in experiment [2] is 10.3 µM (inactive).

For `CCOC(=O)Cc1csc(NC(=O)c2sc3nc4c(C)cc(C)cc4cc3c2N)n1`, in experiment [1], the cell count turned out to be 2560 cells. In experiment [2], the EC50 is 10.9 µM (inactive).

For `CCCN1C(=O)S/C(=C/c2ccc(N3CCOCC3)o2)C1=O`, the cell count in experiment [1] was 3210 cells. Also, in experiment [2], the concentration giving a half-maximal response (EC50) was 5.4 µM.

Take `CN1CC=C2C(C#N)=C(N)C(C#N)(C#N)C(Cc3ccccc3)C2C1` (stereo not drawn): the cell count in experiment [1] amounted to 3290 cells. The EC50 in experiment [2] was 13.7 µM (inactive).

For `COc1ccccc1N/C=C/c1onc(C)c1[N+](=O)[O-]`, in experiment [1], the cell count came out at 3140 cells. Moreover, in experiment [2], the half-maximal effective concentration (EC50) is 7.9 µM.

`N#Cc1c(NC(=S)NC(=O)c2ccccc2)sc2c1CCN(CCc1ccccc1)C2` returned a cell count in experiment [1] of 2330 cells. Further, the EC50 in experiment [2] was 5.79 µM.

For `CCN1CCc2c(sc(NC(=S)NC(=O)c3ccc(Cl)cc3)c2C(N)=O)C1`, the cell count in experiment [1] stood at 3040 cells. In addition, the EC50 in experiment [2] is 6.61 µM.

In experiment [1], `Cc1cccn2c(=O)c(/C=C3\SC(=S)N(CC(C)C)C3=O)c(NCCCOC(C)C)nc12` gave a cell count of 2810 cells. For the same molecule, the EC50 in experiment [2] was > 16 µM (inactive).

In turn, `CC(C)/C=C1\CC/C(=C\c2ccc(N(C)C)cc2)C1=O` showed a cell count in experiment [1] of 2850 cells. Besides, in experiment [2], the half-maximal effective concentration (EC50) was 9.45 µM.

As to `N#Cc1cccc(NC(=O)CSc2ccc3c4c(cccc24)C(=O)c2ccccc2-3)c1`, the cell count in experiment [1] is 3090 cells. In experiment [2], the EC50 was 4.73 µM.

The molecule `O=c1oc2cc(O)ccc2cc1-c1nc2c(s1)CCc1ccccc1-2` showed a cell count in experiment [1] of 2720 cells. Besides, in experiment [2], the EC50 was 7.42 µM.

On to `Cc1cc(N2CCCC2)ccc1/C=C1/C(=O)N(C)C(=S)N1C`, for which, in experiment [1], the cell count came out at 2940 cells. In experiment [2], the EC50 is 7.11 µM.

Regarding `O=[N+]([O-])c1ccc(/C=C/C2=NN(c3ccccc3)C(c3ccco3)C2)o1` (stereo not drawn), the cell count in experiment [1] worked out at 3240 cells. The EC50 in experiment [2] was 3.87 µM.

For the molecule `COc1ccc(C(=O)c2sc3nc(-c4ccccc4)ccc3c2N)cc1OC`, in experiment [1], the cell count was found to be 2560 cells. Also, the 50% effective concentration (EC50) in experiment [2] is 1.87 µM.

`COC(=O)c1cc2c(-c3ccccc3)c(C)c3ccccn3c-2c1C(=O)OC` displayed a cell count in experiment [1] of 2900 cells. The EC50 in experiment [2] is 11.3 µM (inactive).

`CCN1CC=C2C(C1)C(c1ccc(Cl)s1)C(C#N)=C(N)C2(C#N)C#N` (stereo not drawn): the cell count in experiment [1] is 3020 cells. In addition, in experiment [2], the EC50 is 11.5 µM (inactive).

In experiment [1], `CCN1CC=C2C(C#N)=C(N)C(C#N)(C#N)C(c3cc(Cl)ccc3Cl)C2C1` (stereo not drawn) yielded a cell count of 2980 cells. Moreover, in experiment [2], the EC50 was 12.8 µM (inactive).

`COc1cccc(C2C3CN(C)CC=C3C(C#N)=C(N)C2(C#N)C#N)c1OC` (stereo not drawn) gave a cell count in experiment [1] of 2400 cells. Also, the concentration giving a half-maximal response (EC50) in experiment [2] was 7.38 µM.

With `Cc1cc2c(C(F)(F)F)cc(=O)oc2c2c1NCCC2`, the cell count in experiment [1] came out at 3250 cells. The EC50 in experiment [2] is 6.77 µM.

In experiment [1], `N#C/C(=C/c1ccc(N2CCOCC2)o1)C(=O)Nc1ccccc1` came in with a cell count of 3080 cells. Moreover, in experiment [2], the EC50 is 6.7 µM.

With `Cc1cc(N2CCCC2)ccc1/C=C1\NC(=S)N(C)C1=O`, in experiment [1], the cell count was 2440 cells. Moreover, the EC50 in experiment [2] is 7.7 µM.

Take `CCCN1C(=O)/C(=C/c2c(N3CCNC(=O)C3CC(=O)OCC)nc3c(C)cccn3c2=O)SC1=S` (stereo not drawn): the cell count in experiment [1] is 2790 cells. Moreover, the EC50 in experiment [2] is 5.56 µM.

Regarding `COc1cc2c(cc1OC)C1=CC(=O)C(=O)N1C(C)(C)C2`, the cell count in experiment [1] amounted to 2990 cells. Also, the concentration for a half-maximal effect (EC50) in experiment [2] is 5.78 µM.

`COc1ccc2nc(SCC(C)=O)c(C#N)cc2c1` came in with a cell count in experiment [1] of 2490 cells. Further, the EC50 in experiment [2] was 7.2 µM.

For the origin of these results see PubChem BioAssay AID2124 (Sanford-Burnham Center for Chemical Genomics, 2009).
